Data: the supplement of paper PMC10307832

Columns and labels:
Test in all cases: relative viability (nuclei count vs DMSO), 5 days (fraction); higher = more cells survive
Tosedostat = compound: CC(C)C[C@@H](C(=O)N[C@H](C(=O)OC1CCCC1)c1ccccc1)[C@H](O)C(=O)NO [Tosedostat]
Outline: (§1)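 Only plates meeting two conditions passed: control CV below 25% and at least one doubling. Lung cancer cell lines, kept overnight at 37 °C in 1536-well plates, were pinned with five library-drug doses (not always all listed) √10 apart on vehicle-anchored plates and grown 5 days without medium change. A one-step fix, permeabilisation and Hoechst stain preceded 4× imaging and MetaXpress nuclear counting. Viability equals treated-well nuclei divided by vehicle-well nuclei, as the median over plates.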

[1] = compound: CC1=NN=C(O1)C2=NN=C(C=C2)N3CCC(CC3)OC4=C(C=CC(=C4)F)Cl
Outline: as §1

Tosedostat + Decitabine = compound: CC(C)C[C@@H](C(=O)N[C@H](C(=O)OC1CCCC1)c1ccccc1)[C@H](O)C(=O)NO [Tosedostat] + Nc1ncn([C@H]2C[C@H](O)[C@@H](CO)O2)c(=O)n1 [Decitabine] (partner 2 µM)
Outline: (§2)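 Dosing by pin tool came one day after lung cancer cell lines were seeded in 1536-well plates, using either one drug or a fixed anchor-drug dose plus five library-drug doses (not always all listed) in √10 steps. After 5 days, nuclei were counted on 4× images. Relative viability is treated-well nuclei count divided by vehicle-well nuclei count, and values are medians of duplicate plates.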

[2] = compound: CC1=NN=C(O1)C2=NN=C(C=C2)N3CCC(CC3)OC4=C(C=CC(=C4)F)Cl + C[C@]1(O)C[C@@H](c2nc(-c3ccc4ccc(-c5ccccc5)nc4c3)c3c(N)nccn32)C1 [Linsitinib] (partner 1 µM)
Outline: as §2

Q: Which relative viability (Tosedostat; 0.02 µM) does the source give for UMC-11 here?
A: 1.1

Q: And the relative viability (Tosedostat; 0.06325 µM)?
A: 0.994

Q: What about the relative viability (Tosedostat; 0.2 µM) of the same cell line?
A: 1.03

Q: And the relative viability (Tosedostat; 0.6325 µM)?
A: 1.04

Q: And the relative viability (Tosedostat; 2 µM)?
A: 1.05

Q: And the relative viability ([1]; 0.253 µM)?
A: 0.634

Q: What about the relative viability ([1]; 0.8 µM) of the same cell line?
A: 0.641

Q: What about the relative viability ([1]; 2.53 µM) of the same cell line?
A: 0.76

Q: And the relative viability ([1]; 8 µM)?
A: 0.594

Q: And the relative viability (Tosedostat + Decitabine; first compound 0.02 µM)?
A: 0.687

Q: And the relative viability (Tosedostat + Decitabine; first compound 0.06325 µM)?
A: 0.575

Q: And the relative viability (Tosedostat + Decitabine; first compound 0.2 µM)?
A: 0.801

Q: What about the relative viability (Tosedostat + Decitabine; first compound 0.6325 µM) of the same cell line?
A: 0.568

Q: And the relative viability (Tosedostat + Decitabine; first compound 2 µM)?
A: 0.587

Q: And the relative viability ([2]; first compound 0.253 µM)?
A: 0.758

Q: And the relative viability ([2]; first compound 0.8 µM)?
A: 0.732

Q: And the relative viability ([2]; first compound 2.53 µM)?
A: 0.714

Q: And the relative viability ([2]; first compound 8 µM)?
A: 0.744
